Assay results taken from US9090576B2, “2-substituted-p-quinone derivatives for treatment of oxidative stress diseases” (Edison Pharmaceuticals, Inc., priority 2008, dated 2015).
pEC50: −log10 of the molar value.

What was measured:
Format in all cases: cell-based
[1] = test system: human dermal fibroblasts from LHON patients; experiment: Rescue of BSO-stressed fibroblasts from LHON patients (screen as Example A); details: Fibroblast, BSO-stressed LHON fibroblasts (GM03858), less than about 150 nM, read-out: EC50, protection against LHON
Experimental: (§1) A culture with FRDA fibroblasts was started from a 1 ml vial with approximately 500,000 cells stored in liquid nitrogen. Cells were propagated in 10 cm cell culture dishes by splitting every third day in a ratio of 1:3 until nine plates were available. Once confluent, fibroblasts were harvested. For 54 micro titer plates (96 well-MTP) a total of 14.3 million cells (passage eight) were re-suspended in 480 ml medium, corresponding to 100 μl medium with 3,000 cells/well. The remaining cells were distributed in 10 cm cell culture plates (500,000 cells/plate) for propagation. The plates were incubated overnight at 37° C. in an atmosphere with 95% humidity and 5% CO2 to allow attachment of the cells to the culture plate.
(§2) MTP medium (243 μl) was added to a well of the microtiter plate. The test compounds were unfrozen, and 7.5 μl of a 5 mM stock solution was dissolved in the well containing 243 μl medium, resulting in a 150 μM master solution. Serial dilutions from the master solution were made. The period between the single dilution steps was kept as short as possible (generally less than 1 second).
(§3) Plates were kept overnight in the cell culture incubator. The next day, 10 μl of a 10 mM BSO solution were added to the wells, resulting in a 1 mM final BSO concentration. Forty-eight hours later, three plates were examined under a phase-contrast microscope to verify that the cells in the 0% control (wells E1-H1) were clearly dead. The medium from all plates was discarded, and the remaining liquid was removed by gently tapping the plate inversed onto a paper towel.
(§4) 100 μl of PBS containing 1.2 μM Calcein AM were then added to each well. The plates were incubated for 50-70 minutes at room temperature. After that time the PBS was discarded, the plate gently tapped on a paper towel and fluorescence (excitation/emission wavelengths of 485 nm and 525 nm, respectively) was read on a Gemini fluorescence reader. Data was imported into Microsoft Excel (EXCEL is a registered trademark of Microsoft Corporation for a spreadsheet program) and used to calculate the EC50 concentration for each compound.
(§5) Compounds of the invention were screened as described in Example A, but substituting FRDA cells with Leber's Hereditary Optic Neuropathy (LHON) cells obtained from the Coriell Cell Repositories (Camden, N.J.; repository number GM03858). The compounds were tested for their ability to rescue human dermal fibroblasts from LHON patients from oxidative stress.

[2] = test system: human dermal fibroblasts from Huntington's patients; experiment: Rescue of BSO-stressed fibroblasts from Huntington's patients (screen as Example A); details: Fibroblast, BSO-stressed Huntington's fibroblasts (GM 04281), less than about 150 nM, read-out: EC50, protection against Huntington's
Experimental: as §1, §2, §3, §4
as §5, with “tested using the screen” for “screened”, “Huntington's” for “Leber's Hereditary Optic Neuropathy (LHON)”, “GM 04281).” for “GM03858).”, “Huntington's” for “LHON”

[3] = test system: Human dermal fibroblasts from Friedreich's Ataxia patients; experiment: Rescue of BSO-stressed FRDA fibroblasts (Calcein AM viability); details: BSO-stressed FRDA fibroblasts (GM04078), less than about 150 nM, read-out: EC50, protection against FRDA
Experimental: An initial screen was performed to identify compounds effective for the amelioration of redox disorders. Test samples, 4 reference compounds (Idebenone, decylubiquinone, Trolox and α-tocopherol acetate), and solvent controls were tested for their ability to rescue FRDA fibroblasts stressed by addition of L-buthionine-(S,R)-sulfoximine (BSO), as described in Jauslin et al., Hum. Mol. Genet. 11(24):3055 (2002), Jauslin et al., FASEB J. 17:1972-4 (2003), and International Patent Application WO 2004/003565. […] This specific BSO-mediated cell death can be prevented by administration of antioxidants or molecules involved in the antioxidant pathway, such as α-tocopherol, selenium, or small molecule glutathione peroxidase mimetics. However, antioxidants differ in their potency, i.e. the concentration at which they are able to rescue BSO-stressed FRDA fibroblasts.
MEM (a medium enriched in amino acids and vitamins, catalog no. 1-31F24-I) and Medium 199 (M199, catalog no. 1-21F22-I) with Earle's Balanced Salts, without phenol red, were purchased from Bioconcept. Fetal Calf Serum was obtained from PAA Laboratories. Basic fibroblast growth factor and epidermal growth factor were purchased from PeproTech. Penicillin-streptomycin-glutamine mix, L-buthionine (S,R)-sulfoximine, (+)-α-tocopherol acetate, decylubiquinone, and insulin from bovine pancreas were purchased from Sigma. Trolox (6-hydroxy-2,5,7,8-tetramethylchromane-2-carboxylic acid) was obtained from Fluka. Idebenone was obtained from Chemo Iberica. Calcein AM was purchased from Molecular Probes. Cell culture medium was made by combining 125 ml M199 EBS, 50 ml Fetal Calf Serum, 100 U/ml penicillin, 100 μg/ml streptomycin, 2 mM glutamine, 10 μg/ml insulin, 10 ng/ml EGF, and 10 ng/ml bFGF; MEM EBS was added to make the volume up to 500 ml. A 10 mM BSO solution was prepared by dissolving 444 mg BSO in 200 ml of medium with subsequent filter-sterilization. During the course of the experiments, this solution was stored at +4° C. The cells were obtained from the Coriell Cell Repositories (Camden, N.J.; repository number GM04078) and grown in 10 cm tissue culture plates. Every third day, they were split at a 1:3 ratio.
The test samples were supplied in 1.5 ml glass vials. The compounds were diluted with DMSO, ethanol or PBS to result in a 5 mM stock solution. Once dissolved, they were stored at −20° C. Reference antioxidants (Idebenone, decylubiquinone, α-tocopherol acetate and trolox) were dissolved in DMSO.
Test samples were screened according to the following protocol:
as §1, §2
as §3, with “The medium from all plates was discarded, and the remaining liquid was removed by gently tapping the plate inversed onto a paper towel.” left out

## CC1=C(C)C(=O)C(CCC(C)(C)O)=C(CCNS(C)(=O)=O)C1=O [N-(2-(2-(3-hydroxy-3-methylbutyl)-4,5-dimethyl-3,6-dioxocyclohexa-1,4-dienyl)ethyl)methanesulfonamide]
[1]
  pEC50: > 6.82
[2]
  pEC50: > 6.82
[3]
  pEC50: > 6.82

## CC1=C(C)C(=O)C(CCC(C)(C)O)=C(CCNS(=O)(=O)c2ccc(C)cc2)C1=O [N-(2-(2-(3-hydroxy-3-methylbutyl)-4,5-dimethyl-3,6-dioxocyclohexa-1,4-dienyl)ethyl)-4-methylbenzenesulfonamide]
[1]
  pEC50: > 6.82
[2]
  pEC50: > 6.82
[3]
  pEC50: > 6.82

## CC1=C(C)C(=O)C(CCC(C)C(=O)NCCO)=C(C)C1=O (centres unmarked) [N-(2-hydroxyethyl)-2-methyl-4-(2,4,5-trimethyl-3,6-dioxocyclohexa-1,4-dienyl)butanamide]
[1]
  pEC50: > 6.82
[2]
  pEC50: > 6.82
[3]
  pEC50: > 6.82

## CCNC(=O)NCCC1=C(CCC(C)(C)O)C(=O)C(C)=C(C)C1=O [1-Ethyl-3-(2(2-(3-hydroxy-3-methylbutyl)-4,5-dimethyl-3,6-dioxocyclohexa-1,4-dienyl)ethyl)urea]
[1]
  pEC50: > 6.82
[2]
  pEC50: > 6.82
[3]
  pEC50: > 6.82

## CC1=C(C)C(=O)C(CCC(C)C(=O)Nc2ccc(F)cc2)=C(C)C1=O (centres unmarked) [N-(4-fluorophenyl)-2-methyl-4-(2,4,5-trimethyl-3,6-dioxocyclohexa-1,4-dienyl)butanamide]
[1]
  pEC50: > 6.82
[2]
  pEC50: > 6.82
[3]
  pEC50: > 6.82

## CC1=C(C)C(=O)C(CCCC(=O)Nc2cccnc2)=C(C)C1=O [N-(pyridin-3-yl)-4-(2,4,5-trimethyl-3,6-dioxocyclohexa-1,4-dienyl)butanamide]
[1]
  pEC50: > 6.82
[2]
  pEC50: > 6.82
[3]
  pEC50: > 6.82

## CC1=C(C)C(=O)C(CCNC(=O)NCCN2CCOCC2)=C(C)C1=O [1-(2-morpholinoethyl)-3-(2-(2,4,5-trimethyl-3,6-dioxocyclohexa-1,4-dienyl)ethyl)urea]
[1]
  pEC50: > 6.82
[2]
  pEC50: > 6.82
[3]
  pEC50: > 6.82

## CC1=C(C)C(=O)C(CCCC(=O)NCCc2ccncc2)=C(C)C1=O [N-(2-(pyridin-4-yl)ethyl)-4-(2,4,5-trimethyl-3,6-dioxocyclohexa-1,4-dienyl)butanamide]
[1]
  pEC50: > 6.82
[2]
  pEC50: > 6.82
[3]
  pEC50: > 6.82

## CC1=C(C)C(=O)C(CCN(C)C(=O)NCCN(C)C)=C(C)C1=O [3-(2-(dimethylamino)ethyl)-1-methyl-1-(2-(2,4,5-trimethyl-3,6-dioxocyclohexa-1,4-dienyl)ethyl)urea]
[1]
  pEC50: > 6.82
[2]
  pEC50: > 6.82
[3]
  pEC50: > 6.82

## CC1=C(C)C(=O)C(CCC(C)C(=O)NCCc2ccccc2)=C(C)C1=O (centres unmarked) [2-methyl-N-phenethyl-4-(2,4,5-trimethyl-3,6-dioxocyclohexa-1,4-dienyl)butanamide]
[1]
  pEC50: > 6.82
[2]
  pEC50: > 6.82
[3]
  pEC50: > 6.82

## CC1=C(C)C(=O)C(CCNC(=O)c2ccc(C)cc2)=C(C)C1=O [4-methyl-N-(2-(2,4,5-trimethyl-3,6-dioxocyclohexa-1,4-dienyl)ethyl)benzamide]
[1]
  pEC50: > 6.82
[2]
  pEC50: > 6.82
[3]
  pEC50: > 6.82

## CC1=C(C)C(=O)C(CCCC(=O)Nc2ccccc2C#N)=C(C)C1=O [N-(2-cyanophenyl)-4-(2,4,5-trimethyl-3,6-dioxocyclohexa-1,4-dienyl)butanamide]
[1]
  pEC50: > 6.82
[2]
  pEC50: > 6.82
[3]
  pEC50: > 6.82

## CC1=C(C)C(=O)C(CCNC(=O)c2ccccc2)=C(C)C1=O [N-(2-(2,4,5-trimethyl-3,6-dioxocyclohexa-1,4-dienyl)ethyl)benzamide]
[1]
  pEC50: > 6.82
[2]
  pEC50: > 6.82
[3]
  pEC50: > 6.82

## CC1=C(C)C(=O)C(CCC(C)(C)O)=C(CCNC(=O)CCCCC2CCSS2)C1=O (centres unmarked) [5-(1,2-Dithiolan-3-yl)-N-(2-(2-(3-hydroxy-3-methylbutyl)-4,5-dimethyl-3,6-dioxocyclohexa-1,4-dienyl)ethyl)pentanamide]
[1]
  pEC50: > 6.82
[2]
  pEC50: > 6.82
[3]
  pEC50: > 6.82

## CC1=C(C)C(=O)C(CCNC(=O)N2CCN(C)CC2)=C(C)C1=O [4-methyl-N-(2-(2,4,5-trimethyl-3,6-dioxocyclohexa-1,4-dienyl)ethyl)piperazine-1-carboxamide]
[1]
  pEC50: > 6.82
[2]
  pEC50: > 6.82
[3]
  pEC50: > 6.82

## CC(=O)c1ccc(C(=O)NCCC2=C(C)C(=O)C(C)=C(C)C2=O)cc1 [4-acetyl-N-(2-(2,4,5-trimethyl-3,6-dioxocyclohexa-1,4-dienyl)ethyl)benzamide]
[1]
  pEC50: > 6.82
[2]
  pEC50: > 6.82
[3]
  pEC50: > 6.82

## CC1=C(C)C(=O)C(CCN(C)C(=O)Cc2ccc(Cl)cc2)=C(C)C1=O [2-(4-chlorophenyl)-N-methyl-N-(2-(2,4,5-trimethyl-3,6-dioxocyclohexa-1,4-dienyl)ethyl)acetamide]
[1]
  pEC50: > 6.82
[2]
  pEC50: > 6.82
[3]
  pEC50: > 6.82

## CC1=C(C)C(=O)C(CCCC(=O)Nc2ccccc2N)=C(C)C1=O [N-(2-aminophenyl)-4-(2,4,5-trimethyl-3,6-dioxocyclohexa-1,4-dienyl)butanamide]
[1]
  pEC50: > 6.82
[2]
  pEC50: > 6.82
[3]
  pEC50: > 6.82

## CCCCCC(=O)NCCC1=C(CCC(C)(C)O)C(=O)C(C)=C(C)C1=O [N-(2-(2-(3-Hydroxy-3-methylbutyl)-4,5-dimethyl-3,6-dioxocyclohexa-1,4-dienyl)ethyl)hexanamide]
[1]
  pEC50: > 6.82
[2]
  pEC50: > 6.82

## CC1=C(C)C(=O)C(CCCC(=O)NCCO)=C(C)C1=O [N-(2-hydroxyethyl)-4-(2,4,5-trimethyl-3,6-dioxocyclohexa-1,4-dienyl)butanamide]
[1]
  pEC50: > 6.82
[2]
  pEC50: > 6.82
[3]
  pEC50: > 6.82

## CC1=C(C)C(=O)C(CCCC(=O)Nc2cc(Cl)cc(Cl)c2)=C(C)C1=O [N-(3,5-dichlorophenyl)-4-(2,4,5-trimethyl-3,6-dioxocyclohexa-1,4-dienyl)butanamide]
[1]
  pEC50: > 6.82
[2]
  pEC50: > 6.82
[3]
  pEC50: > 6.82

## CC1=C(C)C(=O)C(CCC(C)(C)O)=C(CCNC(=O)c2ccccc2)C1=O [N-(2-(2-(3-hydroxy-3-methylbutyl)-4,5-dimethyl-3,6-dioxocyclohexa-1,4-dienyl)ethyl)-benzamide]
[1]
  pEC50: > 6.82
[2]
  pEC50: > 6.82
[3]
  pEC50: > 6.82
